Data on 15 compounds can be found in ChEMBL document CHEMBL3580628, “Introduction of polar groups on the naphthalene scaffold of molecular tongs inhibiting wild-type and mutated HIV-1 protease dimerization” (Medchemcomm, 2014).

Each structure is given as a SMILES string.

A short description of series [1]: Retention time of the compound. It is filed as physicochemical.
The target of series [2] is T1, Protease (Human immunodeficiency virus 1, UniProt Q9YQ12). Kind of series: Dimerziation inhibition of HIV1 wild type protease using fluorogenic substrate DABCYL- -abu-SQNYPIVQ-EDANS at pH 4.7 by fluorimetric assay.
Series [3] in a line: Dimerziation inhibition of HIV1 ANAM11 protease mutant using fluorogenic substrate DABCYL- -abu-SQNYPIVQ-EDANS at pH 4.7 by fluorimetric assay. Also noted: species or system Human immunodeficiency virus 1.
A short description of series [4]: Metabolic stability in Roswell park memorial institute medium containing 20% fetal calf serum assessed as degradation after 48 hrs by HPLC analysis. The class given is ADME. As to conditions: cattle.
Series [5] has as its target T1, Protease. The series can be described thus: Competitive inhibition of HIV1 protease using fluorogenic substrate DABCYL- -abu-SQNYPIVQ-EDANS assessed as dissociation for dimer-inhibitor complex at pH 4.7 by fluorimetric assay.
The target of series [6] is Protease (Human immunodeficiency virus 1) (UniProt Q9YQ12). The series can be described thus: Competitive inhibition of HIV1 protease using fluorogenic substrate DABCYL- -abu-SQNYPIVQ-EDANS assessed as dissociation for dimer-inhibitor complex at 28 uM at pH 4.7 by fluorimetric assay.

A word on the Ki: it is the equilibrium dissociation constant of an inhibitor or competing ligand from its target. Turning to `COc1ccc(NC(C)=O)cc1C(=O)NNC(=O)[C@H](CCCCNC(=O)CCCOc1ccc2cc(NCC(O)CO)c(OCCCC(=O)NCCCC[C@H](NC(=O)OC(C)(C)C)C(=O)NNC(=O)c3cc(NC(C)=O)ccc3OC)cc2c1)NC(=O)OC(C)(C)C` (some centres not stated), the Retention_time in series [1] stood at 12.7 min. At Protease [2], this compound returned a Ki of 2750 nM.
`COc1ccc(NC(C)=O)cc1C(=O)NNC(=O)[C@H](CCCCNC(=O)CCCOc1ccc2ccc(OCCCC(=O)NCCCC[C@H](NC(=O)OC(C)(C)C)C(=O)NNC(=O)c3cc(NC(C)=O)ccc3OC)cc2c1)NC(=O)OC(C)(C)C`: the Retention_time in series [1] came to 14.8 min. Further, the Ki was 280 nM on Protease [2] and 2000 nM in series [3].
Turning to `COc1ccc(NC(C)=O)cc1C(=O)NNC(=O)[C@@H](NC(=O)CCCOc1ccc2cc(NCC(O)CO)c(OCCCC(=O)N[C@H](C(=O)NNC(=O)c3cc(NC(C)=O)ccc3OC)C(C)C)cc2c1)C(C)C` (some centres not stated), the Retention_time in series [1] was found to be 11.3 min. In addition, the results for the inhibitory constant (Ki) (on Protease [2]; in series [3]) were 600 nM and 940 nM, respectively. Also, in series [4], the Stability result is given as “Stable”.
`COc1ccc(NC(C)=O)cc1C(=O)NNC(=O)[C@H](CCCCNC(=O)CCCOc1ccc2cc(CNC(=N)N)c(OCCCC(=O)NCCCC[C@H](NC(=O)OC(C)(C)C)C(=O)NNC(=O)c3cc(NC(C)=O)ccc3OC)cc2c1)NC(=O)OC(C)(C)C` registered a Retention_time in series [1] of 11.2 min. The Ki at Protease [5] turned out to be 15 µM.
By inhibition is commonly meant how much of the control response was suppressed. On to `COc1ccc(NC(C)=O)cc1C(=O)NNC(=O)[C@H](CCCCNC(=O)CCCOc1ccc2cc(CCCN)c(OCCCC(=O)NCCCC[C@H](NC(=O)OC(C)(C)C)C(=O)NNC(=O)c3cc(NC(C)=O)ccc3OC)cc2c1)NC(=O)OC(C)(C)C`, for which the inhibition in series [6] turned out to be 35%. Also, the Retention_time in series [1] is recorded as 11.4 min.
In the case of `CNCC(=O)Nc1cc2ccc(OCCCC(=O)NCCCC[C@H](NC(=O)OC(C)(C)C)C(=O)NNC(=O)c3cc(NC(C)=O)ccc3OC)cc2cc1OCCCC(=O)NCCCC[C@H](NC(=O)OC(C)(C)C)C(=O)NNC(=O)c1cc(NC(C)=O)ccc1OC`, the inhibition in series [6] was determined as 18%. Besides, in series [1], the Retention_time was 11.1 min.
On to `COc1ccc(NC(C)=O)cc1C(=O)NNC(=O)[C@H](CCCCNC(=O)CCCOc1ccc2cc(N)c(OCCCC(=O)NCCCC[C@H](NC(=O)OC(C)(C)C)C(=O)NNC(=O)c3cc(NC(C)=O)ccc3OC)cc2c1)NC(=O)OC(C)(C)C`, for which, in series [1], the Retention_time is 12.2 min. The results for the inhibitory constant (Ki) (at Protease [2]; in series [3]) were 550 nM and 830 nM, respectively. For the same compound, the Stability entry in series [4] is “Stable”.
In the case of `COc1ccc(NC(C)=O)cc1C(=O)NNC(=O)[C@H](CCCCNC(=O)CCCOc1ccc2cc(NC(=O)CN3CCN(C(=O)OCc4ccccc4)CC3)c(OCCCC(=O)NCCCC[C@H](NC(=O)OC(C)(C)C)C(=O)NNC(=O)c3cc(NC(C)=O)ccc3OC)cc2c1)NC(=O)OC(C)(C)C`, in series [6], the inhibition came to 0%. Moreover, in series [1], the Retention_time is 13.8 min.
In the same order, the values of `COc1ccc(NC(C)=O)cc1C(=O)NNC(=O)[C@H](CCCCNC(=O)CCCOc1ccc2cc(NC(=O)CN3CCNCC3)c(OCCCC(=O)NCCCC[C@H](NC(=O)OC(C)(C)C)C(=O)NNC(=O)c3cc(NC(C)=O)ccc3OC)cc2c1)NC(=O)OC(C)(C)C` are 18% and 11.2 min.
The compound `COc1ccc(NC(C)=O)cc1C(=O)NNC(=O)[C@@H](NC(=O)CCCOc1ccc2ccc(OCCCC(=O)N[C@H](C(=O)NNC(=O)c3cc(NC(C)=O)ccc3OC)C(C)C)cc2c1)C(C)C` had a Retention_time in series [1] of 13.8 min. For the same compound, at Protease [2], the affinity corresponds to a Ki of 220 nM.
Turning to `COc1ccc(NC(C)=O)cc1C(=O)NNC(=O)[C@H](CCCCNC(=O)CCCOc1ccc2cc(CCCN(C)C)c(OCCCC(=O)NCCCC[C@H](NC(=O)OC(C)(C)C)C(=O)NNC(=O)c3cc(NC(C)=O)ccc3OC)cc2c1)NC(=O)OC(C)(C)C`, in series [6], the inhibition came to 0%. Also, the Retention_time in series [1] worked out at 11.4 min.
For the compound `COc1ccc(NC(C)=O)cc1C(=O)NNC(=O)[C@@H](NC(=O)CCCOc1ccc2cc(NCC3COC(C)(C)O3)c(OCCCC(=O)N[C@H](C(=O)NNC(=O)c3cc(NC(C)=O)ccc3OC)C(C)C)cc2c1)C(C)C` (some centres not stated), in series [1], the Retention_time is on record as 14.2 min. Moreover, the Ki on Protease [2] was determined as 2700 nM.
In series [1], `COc1ccc(NC(C)=O)cc1C(=O)NNC(=O)[C@H](CCCCNC(=O)CCCOc1ccc2cc(NCC3COC(C)(C)O3)c(OCCCC(=O)NCCCC[C@H](NC(=O)OC(C)(C)C)C(=O)NNC(=O)c3cc(NC(C)=O)ccc3OC)cc2c1)NC(=O)OC(C)(C)C` (some centres not stated) gave a Retention_time of 15.2 min. Also, affinity at Protease [2] was put at a Ki of 5900 nM.
As for `COc1ccc(NC(C)=O)cc1C(=O)NNC(=O)[C@H](CCCCNC(=O)CCCOc1ccc2cc(CN)c(OCCCC(=O)NCCCC[C@H](NC(=O)OC(C)(C)C)C(=O)NNC(=O)c3cc(NC(C)=O)ccc3OC)cc2c1)NC(=O)OC(C)(C)C`, the Retention_time in series [1] was 11.1 min. For the same compound, the figures for the inhibition constant (Ki) (on Protease [2]; in series [3]) were 300 nM and 2450 nM, respectively.
`COc1ccc(NC(C)=O)cc1C(=O)NNC(=O)[C@@H](NC(=O)CCCOc1ccc2cc(N)c(OCCCC(=O)N[C@H](C(=O)NNC(=O)c3cc(NC(C)=O)ccc3OC)C(C)C)cc2c1)C(C)C` gave a Retention_time in series [1] of 10.6 min. Moreover, the Ki was determined as 400 nM on Protease [2] and 940 nM in series [3].
